Measured values reported in patent publication US20250051403A1, “ANTIMICROBIAL PEPTIDES, VARIANTS AND CHEMICAL ANALOGUES THEREOF AND THEIR USES” (priority 2021, published 2025).
Values after ≈ are worked out from the molar mass of the structure shown. Read-outs that look alike come from different tables or passages of the source. Positions of bridges follow the written chain, without caps; N, C: chain ends. Residues, ends and D or L forms follow the SMILES beside them.

How the values were obtained:
[1] = tested on: Vibrio alginolyticus
[2] = tested on: Enterococcus faecalis Vancomycin-resistant (DSMZ 13591); assay: MIC, broth microdilution; format: cell-based
[3] = tested on: V. diabolicus (HE 800)
[4] = tested on: S. aureus methicillin resistant USA300 (ATCC BAA-1717); assay: MIC, broth microdilution; format: cell-based, Staphylococcus aureus
[5] = tested on: Helicobacter pylori (ATCC 43504); assay: MIC, broth microdilution; format: cell-based
[6] = tested on: Mycobacterium tuberculosis mc^26230
[7] = tested on: E. coli carbapenem- resistant (DSMZ 22314)
[8] = Cytotoxicity, resazurin cell viability; format: cell-based, human; conditions: human
Protocol: The toxicity of Michelicin on human cells was tested as previously described (Borie et al., 2017; Oyama et al., 2017). Briefly, human cells were cultured in Dulbecco's modified essential medium (DMEM) supplemented with 10% fetal calf serum (FCS), 1% L-glutamine and 1% antibiotics (all from Invitrogen). Cells were routinely grown in onto 25 cm^2 flasks maintained in a 5% CO2 incubator at 37° C. For toxicity assay, cells grown on 25 cm^2 flasks were detached using trypsin-EDTA solution (Thermofisher) and seeded into 96-well cell culture plates (Greiner Bio-one) at approximately 10^4 cells per well (counted using Mallasez's chamber). The cells were grown at 37° C. in a 5% CO2 incubator until they reached confluence (approximately 48-72 h of seeding). Wells were then aspirated and increasing concentrations of AMP were added to the cells and incubated for a further 48 h at 37° C. in a 5% CO2 incubator. The wells were then emptied, and cell viability was evaluated using resazurin based in vitro toxicity assay kit (Sigma-Aldrich) following manufacturer's instructions. Briefly, resazurin stock solution was diluted 1:100 in sterile PBS containing calcium and magnesium (PBS++, pH 7.4) and emptied wells were filled with 100 μL of the resazurin diluted solution. After 4 h incubation at 37° C. with the peptide treated cells, fluorescence intensity was measured using microplate reader (SynerMix, Bioteck) (excitation wavelength of 530 nm/emission wavelength of 590 nm). The fluorescence values were normalized by the controls and expressed as percentage of cell viability. The IC50 values of tested AMP on cell viability (i.e. the concentration of peptides causing a reduction of 50% of the cell viability) were calculated using GraphPad® Prism 7 software. Two cell lines were tested: Human Bronchial Epithelial Cell Line (BEAS; ATCC CRL-9609) and Human umbilical vein endothelial cell (HUVEC).

[9] = tested on: Burkholderia cepacia (DSM 7288); assay: MIC, broth microdilution; format: cell-based
[10] = tested on: Escherichia coli (ATCC 8739); assay: MIC, broth microdilution; format: cell-based
[11] = tested on: A. baumannii antibiotic resistant (CIP 110431)
[12] = tested on: Bacillus megaterium
[13] = tested on: V. alginolyticus (MPV19 IFREMER); assay: MIC, broth microdilution; format: cell-based, Vibrio alginolyticus
[14] = tested on: P. aeruginosa Fluoroquinolone resistant (CIP 107398); assay: MIC, broth microdilution; format: cell-based, Pseudomonas aeruginosa
[15] = tested on: Jurkat human cells; conditions: cited from earlier work
[16] = tested on: Klebsiella pneumoniae carbapenem-resistant (DSMZ 26371); assay: MIC, broth microdilution; format: cell-based
[17] = tested on: M. smegmatis mc^2155
[18] = tested on: Staphylococcus aureus (ATCC 6538P); assay: MIC, broth microdilution; format: cell-based
[19] = tested on: Acinetobacter baumannii (CIP 103572); assay: MIC, broth microdilution; format: cell-based
[20] = tested on: Pseudomonas sp biofilm; assay: Biofilm formation assay (crystal violet); format: cell-based; conditions: 20 μM peptide, 2 h at 37° C. on 48 h biofilm; untreated culture 0.95
Protocol: Overnight cultures of V. diabolicus and Pseudomonas sp (37° C., 200 rpm) were diluted to an OD600 of 0.1 in MHB medium and 200 μL aliquots of the suspensions were introduced into the wells of a 96 microtiter plates (Nunc). Plates were then incubated at 37° C. without shaking for 48 h. After removal of the standing culture, the wells were washed with MHB medium and Michelicin, Arenicin and Alvinellacin were added, respectively, at a final concentration of 20 μM in MHB. The treatment was performed during 2 h at 37° C. Wells were then washed three times with distilled water and the remaining attached bacteria were fixed with 99% methanol per well for 20 min at room temperature. Afterward, methanol was removed and plates were air-dried. Biofilms were stained with 300 μL of 1% crystal violet (v/v) for 20 min at room temperature, before the residual stain was removed. After washing, the crystal violet bound to the adherent cells was solubilized with 300 μL of 100% ethanol and absorbance was measured at 595 nm (TECAN, sunrise). Sterile medium served as negative control. It is clear on the view of FIG. 3 that Michelicin has a greater antimicrobial activity on a biofilm of Pseudomonoas sp strains than Alvinellacin. For Pseudomonas sp, OD595 is equal to 0.6 when treated with Michelicin, equal to 0.55 when treated with Arenicin and equal to 0.65 when treated with Alvinellacin. […]

[21] = tested on: S. aureus (Pasteur); assay: MIC, broth microdilution; format: cell-based, Staphylococcus aureus
[22] = tested on: Serratia marcescens; assay: MIC, broth microdilution; format: cell-based
[23] = tested on: Bacillus subtilis (ATCC 6633); assay: MIC, broth microdilution; format: cell-based; conditions: Table IV
Protocol: (§1) To standardize the bacterial cell suspension for assay of antibacterial activity, some colonies of each strain grown overnight on MHA (Mueller Hinton Agar. ROTH) plates were suspended in MHB (Mueller Hinton Broth. ROTH) or MHB saline (Mueller Hinton Broth containing 565 mM NaCl) and incubated at 37° C. or 30° C. until visible turbid. This log-phase inoculum was diluted 1:100 in the same culture media. Using sterile 96-well microtiter plates (CELLSTAR. Greiner bio-one), serial 2-fold dilutions (40 to 0.78 μM) of each peptide were prepared in cation-adjusted acetic acid 0.02% with 0.4% BSA (Bovin Serum Albumin fraction V. Boehringer) at a volume of 10 μL/well. Each well was inoculated with 100 μL of the standardized bacterial inoculum, corresponding to a final test concentration of about 10^5 CFU/mL. Antimicrobial activities were expressed as the MIC (Minimal Inhibitory Concentration), the lowest concentration of peptide at which 100% inhibition of microbial growth was observed after 24 h of incubation at 37° C. or 30° C. by measuring OD600 in a microtiter plate reader. The minimal bactericidal concentration (MBC) was defined as the peptide concentration where no colony growth was observed.
(§2) The same experiments as described in 1) were performed. For the evaluation of antimicrobial activity against some other strains, a resazurin microtiter assay was used as explained hereinafter.

[24] = tested on: Salmonella enterica (CIP 80.39); assay: MIC, broth microdilution; format: cell-based; conditions: Table IV
Protocol: as §1, §2

[25] = tested on: V. diabolicus; assay: Scanning electron microscopy of treated bacteria; format: cell-based, Vibrio diabolicus; conditions: FIG. 9
Excerpt: (§3) The arrows show pore formed through the membrane. For V. diabolicus, despite the results of FIG. 3, is seems that Michelicin has a pore-forming activity on these bacteria.

[26] = tested on: M. abscessus R (CIP104537^TR); conditions: Table IV; REMA, 90% growth inhibition
[27] = tested on: V. alginolyticus; assay: Scanning electron microscopy of treated bacteria; format: cell-based, Vibrio alginolyticus; conditions: FIG. 9
Excerpt: as §3

[28] = tested on: B. subtilis nisin resistant (DSMZ 347); conditions: Table IV
[29] = tested on: Pseudomonas aeruginosa (ATCC 9027); assay: MIC, broth microdilution; format: cell-based; conditions: Table IV
[30] = tested on: E. coli (D31 Pasteur); assay: MIC, broth microdilution; format: cell-based, Escherichia coli; conditions: Table IV
Protocol: as §1, §2

[31] = tested on: Pseudomonas sp.; assay: MIC, broth microdilution; format: cell-based; conditions: Table III; MHB saline 565 mM NaCl
Protocol: as §1

[32] = tested on: M. bovis BCG Pasteur; conditions: Table IV; REMA, 90% growth inhibition

CC(C)C[C@@H]1NC(=O)[C@H](C(C)C)NC(=O)CNC(=O)[C@H](CCCNC(=N)N)NC(=O)[C@H](C(C)C)NC(=O)[C@H](CCCNC(=N)N)NC(=O)[C@H](C(C)C)NC(=O)[C@H](Cc2ccc(O)cc2)NC(=O)[C@H](C)NC(=O)[C@H](Cc2ccc(O)cc2)NC(=O)[C@H](C(C)C)NC(=O)[C@@H](NC(=O)[C@H](Cc2c[nH]c3ccccc23)NC(=O)[C@@H](N)CCCNC(=N)N)CSSC[C@@H](C(=O)N[C@@H](Cc2c[nH]c3ccccc23)C(=O)O)NC(=O)[C@H](CCCNC(=N)N)NC(=O)[C@H](CCCNC(=N)N)NC(=O)[C@H](Cc2ccc(O)cc2)NC(=O)[C@H](CCCNC(=N)N)NC(=O)[C@H](C(C)C)NC1=O [Arenicin] (H-RWCVYAYVRVRGVLVRYRRCW-OH; disulfide 3-20)
MIC [1]: 0.15 to 0.31 µM | MIC with 565 mM NaCl [1]: 0.07 to 0.15 µM | MIC ([1]; 24 h): 0.15 to 0.31 µM | MIC ([2]; DSMZ 13591): 1.25 to 2.5 µM | MIC [3]: 1.25 to 2.5 µM | MIC with 565 mM NaCl [3]: 10 to 20 µM | MIC ([4]; USA300): 5 to 10 µM | MIC ([5]; ATCC 43504): 1.25 to 2.5 µM | MIC [6]: 7.1 to 12.2 µM | MIC ([7]; DSMZ 22314): 2.5 to 5 µM | viability at 48 h, 80 µM ([8]; BEAS human bronchial epithelial cells (ATCC CRL-9609)): 95% | viability at 48 h, 80 µM ([8]; HUVEC (human umbilical vein endothelial cells)): 40% | MIC ([9]; DSM 7288): 25 µM (≈ 69 µg/mL) | MIC ([10]; ATCC 8739): 2.5 to 5 µM | MIC ([11]; CIP 110431): 20 to 40 µM | MIC [12]: 0.07 to 0.15 µM | MIC with 565 mM NaCl [12]: 20 to 40 µM | MIC [13]: 0.15 to 0.31 µM | MIC with 565 mM NaCl [13]: 2.5 to 5 µM | MIC ([14]; CIP 107398): 1.25 to 2.5 µM | Cytotoxicity towards Jurkat human cells [15]: cytotoxic | MIC ([16]; DSMZ 26371): 1.25 to 2.5 µM | MIC [17]: 0.7 to 10 µM | MIC ([18]; ATCC 6538): 1.25 to 2.5 µM | MIC ([19]; CIP 103572): 1.25 to 2.5 µM | Biofilm OD595 after treatment [20]: 0.55 | MIC ([21]; Pasteur): 1.25 to 2.5 µM | MIC [22]: >50 µM

CSCC[C@@H]1NC(=O)[C@@H]2CSSC[C@H](NC(=O)[C@H](CCCNC(=N)N)NC(=O)[C@H]([C@@H](C)O)NC(=O)[C@H](Cc3ccc(O)cc3)NC(=O)[C@@H](NC(=O)CNC(=O)[C@@H](N)CCCNC(=N)N)CSSC[C@@H](C(=O)N[C@H](C(=O)O)[C@@H](C)O)NC(=O)[C@H](C(C)C)NC(=O)[C@H](CCCNC(=N)N)NC1=O)C(=O)N[C@@H](Cc1c[nH]c3ccccc13)C(=O)N[C@@H](CCCCN)C(=O)N[C@@H](C(C)C)C(=O)NCC(=O)N[C@@H](CCCNC(=N)N)C(=O)N[C@@H](CC(N)=O)C(=O)NCC(=O)N[C@@H](CCCNC(=N)N)C(=O)N[C@@H](C(C)C)C(=O)N2 [Alvinellacin] (H-RGCYTRCWKVGRNGRVCMRVCT-OH; disulfide 3-21, 7-17; N-terminus and C-terminus assumed)
MIC [1]: 0.07 to 0.15 µM | MIC with 565 mM NaCl [1]: 0.07 to 0.15 µM | MIC ([1]; 24 h): 0.07 to 0.15 µM | MIC [23]: 0.625 to 1.25 µM | MIC [24]: 0.625 to 1.25 µM | Membrane damage seen by scanning electron microscopy [25]: able to damage | MIC ([2]; Table IV): 20 to 40 µM | MIC [26]: 17.0 to 17.8 µM | Membrane damage seen by scanning electron microscopy [27]: able to damage | MIC [3]: 2.5 to 5 µM | MIC with 565 mM NaCl [3]: 2.5 to 5 µM | MIC [28]: 0.625 to 1.25 µM | MIC ([4]; Table IV): 2.5 to 5 µM | MIC ([5]; Table IV): 1.25 to 2.5 µM | MIC [6]: 16.0 to 21.5 µM | MIC [29]: 1.25 to 2.5 µM | MIC [30]: 0.31 to 0.62 µM | MIC ([7]; Table IV): 0.625 to 1.25 µM | MIC ([9]; Table IV): 10 µM (≈ 26 µg/mL) | MIC with 565 mM NaCl [31]: 5 to 10 µM | MIC ([10]; Table IV): 1.25 to 2.5 µM | MIC ([11]; Table IV): 0.625 to 1.25 µM | MIC [12]: 0.15 to 0.31 µM | MIC with 565 mM NaCl [12]: 2.5 to 5 µM | MIC [32]: 12.0 to 21.4 µM | MIC ([13]; Table III, MHB): 0.07 to 0.15 µM | MIC with 565 mM NaCl ([13]; Table III, MHB saline 565 mM NaCl): 0.62 to 1.25 µM | MIC ([13]; Table IV): 0.07 to 0.15 µM | MIC ([14]; Table IV): 1.25 to 2.5 µM | MIC ([16]; Table IV): 1.25 to 2.5 µM | MIC ([18]; Table IV): 2.5 to 5 µM | MIC ([19]; Table IV): 1.25 to 2.5 µM | Biofilm OD595 after treatment [20]: 0.65 | MIC ([21]; Table IV): 1.25 to 2.5 µM | MIC ([22]; Table IV): >50 µM
